Experiments:
[1] = system: A. baumanii K12-21; test: MIC, multi-resistant clinical isolate; format: cell-based, Acinetobacter baumannii; conditions: for MIC: Acinetobacter baumannii, K1221, read-out: Antimicrobial activity (MIC); for selectivity index (EC50/MIC): RBC EC50 / MIC
Experimental: (§1) Working solutions of the test derivatives were prepared with up to 100% DMSO and stored at −20° C. If necessary, the solutions were heated to 40-80° C. before testing to facilitate complete dissolution. Double-distilled water was used in all dilutions prepared. […] A microdilution susceptibility test was used for MIC determination according to Clinical and Laboratory Standards Institute, “Methods for Dilution Antimicrobial Sisceptibility Tests for Bacteria That Graw Aerobically”, Approved Standard M07-A9, edition 2012, with modifications as described by Igumnova et al (Bioorg Med Chem, 2016, 24 (22), 5884-5894).
(§2) Briefly, the bacterial inoculum was adjusted to approximately 2.5-3×10^4 cells/mL in Mueller-Hinton broth (MHB, Difco Laboratories, USA), and incubated in a ratio of 1:1 with test derivatives in polystyrene 96-well flat-bottom microplates (NUNC, Roskilde, Denmark). Positive growth control (without test derivatives) and negative control (without bacteria) were included. The reference antibiotic was oxytetracycline hydrochloride (Sigma Aldrich, Saint Louis, Mo., USA). The microplates were incubated in an EnVision microplate reader (Perkin-Elmer, Turku, Finland) placed in an incubator set to 35° C. for 48 h. The MIC value was defined as the lowest concentration of derivative resulting in no bacterial growth as determined by OD600 measurement. All derivatives were tested in three parallels.
(§3) The MIC was determined as explained above with some exceptions; working solutions of test derivatives were prepared from concentrated DMSO stocks stored at room temperature, the density of the bacterial inoculum was increased 40× to 1-1.2×10^6 cells/mL, enterococci were incubated in Brain Heart Infusion broth (BHIB, Difco Laboratories, USA), the microplates were incubated for 24 h, and the derivatives were tested in four parallels.

[2] = system: A. baumanii K63-58; test: MIC, multi-resistant clinical isolate; format: cell-based, Acinetobacter baumannii; conditions: A. baumanii K63-58, resistant to colistin; for MIC: Acinetobacter baumannii, K6358, 24 h, read-out: Antimicrobial activity (MIC); for selectivity index (EC50/MIC): RBC EC50 / MIC
Experimental: as §1, §2, §3

[3] = system: A. baumanii K55-13; test: MIC, multi-resistant clinical isolate; format: cell-based, Acinetobacter baumannii; conditions: for MIC: Acinetobacter baumannii, K5513, read-out: Antimicrobial activity (MIC); for selectivity index (EC50/MIC): RBC EC50 / MIC
Experimental: as §1, §2, §3

[4] = system: S. epidermidis; test: Anti-biofilm activity (inhibition of biofilm formation); format: cell-based; conditions: Staphylococcus epidermidis, read-out: Anti-biofilm IC50
[5] = system: Pseudomonas aeruginosa PA01, DSM 19880 (ATCC 15692); test: MIC assay, antibiotic susceptible reference strain; format: cell-based; conditions: Pseudomonas aeruginosa, read-out: Antimicrobial activity (MIC) P. a
Experimental: as §1, §2

[6] = system: Staphylococcus aureus ATCC 9144; test: MIC assay, antibiotic susceptible reference strain; format: cell-based; conditions: Staphylococcus aureus, ATCC9144, read-out: Antimicrobial activity (MIC) S. a
Experimental: as §1, §2

[7] = system: Escherichia coli ATCC 25922; test: MIC assay, antibiotic susceptible reference strain; format: cell-based; conditions: Escherichia coli, ATCC25922, read-out: Antimicrobial activity (MIC) E. c
Experimental: as §1, §2

[8] = system: Corynebacterium glutamicum ATCC 13032; test: MIC assay, antibiotic susceptible reference strain; format: cell-based; conditions: Corynebacterium glutamicum, ATCC13032, read-out: Antimicrobial activity (MIC) C. g
Experimental: as §1, §2

[9] = system: human metastatic melanoma (A2058, ATCC CRL-11147) cells; test: Anti-cancer activity against A2058 cells; format: cell-based; conditions: A2058, read-out: Anti-cancer IC50
Experimental: Cytotoxicity of the test compounds was evaluated after 72 hour exposure to human metastatic melanoma (A2058, ATCC CRL-11147) cells.
A2058 cells were grown overnight (2,000 cells/well), and then incubated with the test compounds (range of concentrations) diluted in MEM Earle's supplemented with gentamycin (10 μg/mL), non-essential amino acids (1%), sodium pyruvate (1 mM), L-alanyl-Lglutamine (2 mM), but without FBS (total volume was 100 μl) for […]. Ten μL of CellTiter 96® AQueous One Solution Reagent (Promega, Madison, Wis., USA) was added, and the plates were then further incubated for 1 hour.
Absorbance was measured at 485 nm in a DTX 880 Multimode Detector. Results were calculated as % survival compared to negative (assay media) and positive (Triton X-100; Sigma-Aldrich) controls.

[10] = system: E. coli 50857972; test: MIC, multi-resistant clinical isolate; format: cell-based, Escherichia coli; conditions: for MIC: Escherichia coli, read-out: Antimicrobial activity (MIC); for selectivity index (EC50/MIC): RBC EC50 / MIC
Experimental: as §1, §2, §3

[11] = system: E. coli 50639799; test: MIC, multi-resistant clinical isolate; format: cell-based, Escherichia coli; conditions: for MIC: Escherichia coli, read-out: Antimicrobial activity (MIC); for selectivity index (EC50/MIC): RBC EC50 / MIC
Experimental: as §1, §2, §3

[12] = system: E. coli 50739822; test: MIC, multi-resistant clinical isolate; format: cell-based, Escherichia coli; conditions: for MIC: Escherichia coli, read-out: Antimicrobial activity (MIC); for selectivity index (EC50/MIC): RBC EC50 / MIC
Experimental: as §1, §2, §3

[13] = system: E. coli 50579417; test: MIC, multi-resistant clinical isolate; format: cell-based, Escherichia coli; conditions: for MIC: Escherichia coli, read-out: Antimicrobial activity (MIC); for selectivity index (EC50/MIC): RBC EC50 / MIC
Experimental: as §1, §2, §3

[14] = system: E. coli 50676002; test: MIC, multi-resistant clinical isolate; format: cell-based, Escherichia coli; conditions: for MIC: Escherichia coli, 50676002, read-out: Antimicrobial activity (MIC); for selectivity index (EC50/MIC): RBC EC50 / MIC, E. coli 50676002
Experimental: as §1, §2, §3

[15] = system: E. faecium K36-18; test: MIC, multi-resistant clinical isolate; format: cell-based, Enterococcus faecium; conditions: for MIC: Enterococcus faecium, K3618, read-out: Antimicrobial activity (MIC); for selectivity index (EC50/MIC): RBC EC50 / MIC, E. faecium K36-18
Experimental: as §1, §2, §3

[16] = system: E. faecium TUH50-22; test: MIC, multi-resistant clinical isolate; format: cell-based, Enterococcus faecium; conditions: for MIC: Enterococcus faecium, TUH5022, read-out: Antimicrobial activity (MIC); for selectivity index (EC50/MIC): RBC EC50 / MIC
Experimental: as §1, §2, §3

[17] = system: E. faecium 50673722; test: MIC, multi-resistant clinical isolate; format: cell-based, Enterococcus faecium; conditions: for MIC: Enterococcus faecium, read-out: Antimicrobial activity (MIC); for selectivity index (EC50/MIC): RBC EC50 / MIC
Experimental: as §1, §2, §3

[18] = system: E. faecium 50758899; test: MIC, multi-resistant clinical isolate; format: cell-based, Enterococcus faecium; conditions: for MIC: Enterococcus faecium, read-out: Antimicrobial activity (MIC); for selectivity index (EC50/MIC): RBC EC50 / MIC
Experimental: as §1, §2, §3

[19] = system: E. faecium 50901530; test: MIC, multi-resistant clinical isolate; format: cell-based, Enterococcus faecium; conditions: for MIC: Enterococcus faecium, read-out: Antimicrobial activity (MIC); for selectivity index (EC50/MIC): RBC EC50 / MIC
Experimental: as §1, §2, §3

[20] = system: panel of 30 multi-resistant clinical isolates of Gram-positive and Gram-negative bacteria; test: MIC screening, ranges over the panel of clinical isolates; format: cell-based; conditions: Enterococcus faecium, read-out: MIC values against the Gram-positive isolates of S. aurues and E. faecium
Experimental: as §1, §2, §3

NCCCCN1C(=O)N(CCCCN)C(=O)C(Cc2ccc3ccccc3c2)(Cc2ccc3ccccc3c2)C1=O [7(iv), 1,3-bis(4-aminobutyl)-5,5-bis(naphtalen-2-yl-methyl)-pyrimidin-2,4,6(1H,3H,5H)-trione]
8 µg/mL: MIC [6] | MIC [16] | MIC [19]
4 to 16 µg/mL: MIC [20]
32 µg/mL: MIC [1] | MIC [3]
(8): selectivity index (EC50/MIC) [1] | selectivity index (EC50/MIC) [3]
4 µg/mL: IC50 [4]
(30): selectivity index (EC50/MIC) [16] | selectivity index (EC50/MIC) [19]
16 µg/mL: MIC [2] | MIC [5] | MIC [7] | MIC [10] | MIC [11] | MIC [12] | MIC [13] | MIC [14] | MIC [15] | MIC [17] | MIC [18]
1 µg/mL: MIC [8] | IC50 [9]
(15): selectivity index (EC50/MIC) [2] | selectivity index (EC50/MIC) [10] | selectivity index (EC50/MIC) [11] | selectivity index (EC50/MIC) [12] | selectivity index (EC50/MIC) [13] | selectivity index (EC50/MIC) [14] | selectivity index (EC50/MIC) [15] | selectivity index (EC50/MIC) [17] | selectivity index (EC50/MIC) [18]

NCCCCN1C(=O)N(CCCCN)C(=O)C(Cc2ccc(F)c3ccccc23)(Cc2ccc(F)c3ccccc23)C1=O [7(v), 1,3-bis(4-aminobutyl)-5,5-bis((4-fluoronaphtalen-1-yl)methyl)pyrimidin-2,4,6(1H,3H,5H)-trione]
4 µg/mL: IC50 [4] | MIC [6] | MIC [16] | MIC [19]
8 µg/mL: MIC [5] | MIC [15] | MIC [17] | MIC [18]
16 µg/mL: MIC [2] | MIC [7] | MIC [10] | MIC [11] | MIC [12] | MIC [13] | MIC [14]
(5): selectivity index (EC50/MIC) [1] | selectivity index (EC50/MIC) [3]
(40): selectivity index (EC50/MIC) [16] | selectivity index (EC50/MIC) [19]
1 µg/mL: MIC [8] | IC50 [9]
(20): selectivity index (EC50/MIC) [15] | selectivity index (EC50/MIC) [17] | selectivity index (EC50/MIC) [18]
4 to 16 µg/mL: MIC [20]
(10): selectivity index (EC50/MIC) [2] | selectivity index (EC50/MIC) [10] | selectivity index (EC50/MIC) [11] | selectivity index (EC50/MIC) [12] | selectivity index (EC50/MIC) [13] | selectivity index (EC50/MIC) [14]
32 µg/mL: MIC [1] | MIC [3]
